Measured values as given in US20090325959A1 (priority 2008, published 2009).
Where two headings read alike, the source gives them in different places.

Columns and labels:
[1] = target: T1, ROCK1 (Homo sapiens, UniProt Q13464); assay: Rho kinase inhibition assay (IMAP fluorescence polarization), ROCK1; type: biochemical;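 also: kinase reaction run 60 min at room temperature, then phosphorylated substrate captured on IMAP beads for 30 min, with fluorescence polarization read in mP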
T1 construct: purchased Upstate/Chemicon 14-601
Description: (§1) Following the pre-incubation, 10 μM ATP was added to initiate the reaction. After 60 minutes at room temperature, Molecular Devices IMAP™ binding solution was added to bind phosphorylated substrate. After 30 minutes of incubation in the presence of the IMAP™ beads, the fluorescence polarization was read and the ratio was reported as mP. IC50 values for compounds and EC50 values for ATP were calculated using the Prism software from Graphpad.

[2] = target: T2, ROCK2 (Homo sapiens, UniProt O75116); assay: Rho kinase inhibition assay (IMAP fluorescence polarization), ROCK2; type: biochemical; settings: read-out: ROCK2 Ki, Avg;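 also: kinase reaction started with 10 µM ATP and run 60 min at room temperature, then phosphorylated substrate captured on IMAP beads for 30 min and fluorescence polarization read in mP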
T2 construct: purchased Upstate/Chemicon 14-451
T2 sequence (O75116 11-552 limits assumed): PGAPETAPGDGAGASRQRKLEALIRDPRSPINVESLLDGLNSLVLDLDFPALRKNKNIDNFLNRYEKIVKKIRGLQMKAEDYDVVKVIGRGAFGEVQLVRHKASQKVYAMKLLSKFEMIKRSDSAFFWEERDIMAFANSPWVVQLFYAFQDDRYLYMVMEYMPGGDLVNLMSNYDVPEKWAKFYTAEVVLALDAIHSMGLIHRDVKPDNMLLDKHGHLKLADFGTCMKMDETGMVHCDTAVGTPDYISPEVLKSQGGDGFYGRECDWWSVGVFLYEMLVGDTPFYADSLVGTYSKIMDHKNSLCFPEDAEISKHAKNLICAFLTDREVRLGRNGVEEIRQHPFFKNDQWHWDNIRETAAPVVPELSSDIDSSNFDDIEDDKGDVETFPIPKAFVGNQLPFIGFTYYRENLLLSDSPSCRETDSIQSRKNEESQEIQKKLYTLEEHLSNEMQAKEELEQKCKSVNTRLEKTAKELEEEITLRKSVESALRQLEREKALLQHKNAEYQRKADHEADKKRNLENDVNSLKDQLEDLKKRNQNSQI
Description: as §1

T1 sequence (Q13464 17-535 limits assumed): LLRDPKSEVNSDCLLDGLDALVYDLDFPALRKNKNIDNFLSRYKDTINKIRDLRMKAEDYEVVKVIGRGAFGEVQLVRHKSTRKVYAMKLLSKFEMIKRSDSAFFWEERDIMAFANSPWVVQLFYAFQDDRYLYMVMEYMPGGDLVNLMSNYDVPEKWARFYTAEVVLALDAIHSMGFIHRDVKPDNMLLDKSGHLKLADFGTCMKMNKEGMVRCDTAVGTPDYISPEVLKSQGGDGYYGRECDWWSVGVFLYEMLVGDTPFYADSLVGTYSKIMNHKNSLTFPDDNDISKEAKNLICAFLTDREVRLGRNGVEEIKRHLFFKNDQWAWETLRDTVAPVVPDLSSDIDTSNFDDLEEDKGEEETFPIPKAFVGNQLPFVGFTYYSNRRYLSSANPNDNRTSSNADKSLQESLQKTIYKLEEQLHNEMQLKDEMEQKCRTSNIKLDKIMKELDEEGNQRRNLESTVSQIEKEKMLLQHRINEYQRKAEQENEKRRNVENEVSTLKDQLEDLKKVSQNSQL

SMILES | Ki ([1]; Avg, 10 μM ATP) [µM] | Ki ([2]; 10 μM ATP) [µM] | Ki [2] [µM] | Ki ([1]; average Ki) [µM]
Clc1ccc(CN2CCC[C@H](Nc3ccc4[nH]ncc4c3)C2)cc1Cl [Compound 1.080, (S)-N-(1-(3,4-dichlorobenzyl)piperidin-3-yl)-1H-indazol-5-amine] | 0.131 | 0.0152 |  | 
OCCOc1cccc(CN2CCC[C@H](Nc3ccc4[nH]ncc4c3)C2)c1 [Compound 1.090, (S)-2-(3-((3-(1H-indazol-5-ylamino)piperidin-1-yl)methyl)phenoxy)ethanol] | 0.281 | 0.0249 |  | 
CS(=O)(=O)Nc1cccc(CN2CC[C@H](Nc3ccc4[nH]ncc4c3)C2)c1 [Compound 1.095, (S)-N-(3-((3-(1H-indazol-5-ylamino)pyrrolidin-1-yl)methyl)phenyl)methanesulfonamide] | 0.275 | 0.0495 |  | 
NC(=O)COc1cccc(CN2CCC[C@@H](Nc3ccc4[nH]ncc4c3)C2)c1 [Compound 1.098, 2-(3-((3-(1H-indazol-5-ylamino)piperidin-1-yl)methyl)phenoxy)acetamide] |  | 0.025 |  | 
OC[C@@H](O)COc1cccc(CN2CCC[C@@H](Nc3ccc4[nH]ncc4c3)C2)c1 [Compound 1.115, (R)-3-(3-(((R)-3-(1H-indazol-5-ylamino)piperidin-1-yl)methyl)phenoxy)propane-1,2-diol] | 0.0897 | 0.0206 |  | 
C[C@@H](O)COc1cccc(CN2CCC[C@@H](Nc3ccc4[nH]ncc4c3)C2)c1 [Compound 1.116, (R)-1-(3-(((R)-3-(1H-indazol-5-ylamino)piperidin-1-yl)methyl)phenoxy)propan-2-ol] | 0.258 | 0.0489 |  | 
OC[C@@H](O)COc1cccc(CN2CCC[C@H](Nc3ccc4[nH]ncc4c3)C2)c1 [Compound 1.117, (R)-3-(3-(((S)-3-(1H-indazol-5-ylamino)piperidin-1-yl)methyl)phenoxy)propane-1,2-diol] | 0.208 | 0.0358 |  | 
C[C@@H](O)COc1cccc(CN2CCC[C@H](Nc3ccc4[nH]ncc4c3)C2)c1 [Compound 1.118, (R)-1-(3-(((S)-3-(1H-indazol-5-ylamino)piperidin-1-yl)methyl)phenoxy)propan-2-ol] | 0.462 | 0.0817 |  | 
O=C(O)COc1cccc(CN2CCC[C@@H](Nc3ccc4[nH]ncc4c3)C2)c1 [Compound 1.125, (R)-2-(3-((3-(1H-indazol-5-ylamino)piperidin-1-yl)methyl)phenoxy)acetic acid] | 0.557 | 0.0509 |  | 
OCCOc1cccc(CN2CCC(Nc3ccc4[nH]ncc4c3)CC2)c1 [Compound 1.130, 2-(3-((4-(1H-indazol-5-ylamino)piperidin-1-yl)methyl)phenoxy)ethanol] | 0.577 | 0.142 |  | 
CS(=O)(=O)Cc1cccc(CN2CCC[C@@H](Nc3ccc4[nH]ncc4c3)C2)c1 [Compound 1.139, (R)-N-(1-(3-(methylsuifonylmethyl)benzyl)piperidin-3-yl)-1H-indazol-5-amine] | 0.2 | 0.0232 |  | 
CC(C)(C)OC(=O)NCc1cccc(CN2CCC[C@@H](Nc3ccc4[nH]ncc4c3)C2)c1 [Compound 1.140, (R)-tert-butyl 3-((3-(1H-indazol-5-ylamino)piperidin-1-yl)methyl)benzylcarbamate] | 0.236 | 0.0329 |  | 
Clc1ccc(CN2CCC[C@@H](Nc3ccc4[nH]ncc4c3)C2)cc1Cl [Compound 1.144, (R)-N-(1-(3,4-dichlorobenzyl)piperidin-3-yl)-1H-indazol-5-amine] | 0.0976 | 0.0195 |  | 
CCOC(=O)COc1cccc(CN2CCC[C@@H](Nc3ccc4[nH]ncc4c3)C2)c1 [Compound 1.147, (R)-ethyl 2-(3-((3-(1H-indazol-5-ylamino)piperidin-1-yl)methyl)phenoxy)acetate] | 0.0583 | 0.0457 |  | 
CS(=O)(=O)c1cccc(CN2CCC[C@@H](Nc3ccc4[nH]ncc4c3)C2)c1 [Compound 1.160, (R)-N-(1-(3-(methylsulfonyl)benzyl)piperidin-3-yl)-1H-indazol-5-amine] | 0.218 | 0.0494 |  | 
CCSc1ccc(CN2CCC[C@H](Nc3ccc4[nH]ncc4c3)C2)cc1 [Compound 1.168, (S)-N-(1-(4-(ethylthio)benzyl)piperidin-3-yl)-1H-indazol-5-amine] | 0.162 | 0.0229 |  | 
FC(F)(F)c1cccc(CN2CCC[C@H](Nc3ccc4[nH]ncc4c3)C2)c1 [Compound 1.169, (S)-N-(1-(3-(trifluoromethyl)benzyl)piperidin-3-yl)-1H-indazol-5-amine] | 0.256 | 0.0338 |  | 
Cc1cccc(CN2CCC[C@@H](Nc3ccc4[nH]ncc4c3)C2)c1C [Compound 1.172, (R)-N-(1-(2,3-dimethylbenzyl)piperidin-3-yl)-1H-indazol-5-amine] | 0.103 | 0.0205 |  | 
c1cc2c(cc1CN1CCC[C@@H](Nc3ccc4[nH]ncc4c3)C1)OCCO2 [Compound 1.177, (R)-N-(1-((2,3-dihydrobenzo[b][1,4]dioxin-6-yl)methyl)piperidin-3-yl)-1H-indazol-5-amine] | 0.156 | 0.0182 |  | 
CCOc1cccc(CN2CCC[C@H](Nc3ccc4[nH]ncc4c3)C2)c1 [Compound 1.179, (S)-N-(1-(3-ethoxybenzyl)piperidin-3-yl)-1H-indazol-5-amine] | 0.292 | 0.0193 |  | 
CS(=O)(=O)c1ccc(CN2CCC[C@H](Nc3ccc4[nH]ncc4c3)C2)cc1 [Compound 1.181, (S)-N-(1-(4-(methylsulfonyl)benzyl)piperidin-3-yl)-1H-indazol-5-amine] | 0.568 | 0.0328 |  | 

SMILES | Ki ([1]; Avg, 10 μM ATP) [µM] | Ki ([2]; 10 μM ATP) [µM] | Ki [2] [µM] | Ki ([1]; average Ki) [µM]
CS(=O)(=O)c1cccc(CN2CCC[C@H](Nc3ccc4[nH]ncc4c3)C2)c1 [Compound 1.182, (S)-N-(1-(3-(methylsulfonyl)benzyl)piperidin-3-yl)-1H-indazol-5-amine] | 0.408 | 0.0306 |  | 
NCc1cccc(CN2CCC[C@H](Nc3ccc4[nH]ncc4c3)C2)c1 [Compound 1.184, (S)-N-(1-(3-(aminomethyl)benzyl)piperidin-3-yl)-1H-indazol-5-amine] | 0.843 | 0.0909 |  | 
CC(C)(C)OC(=O)COc1cccc(CN2CCC[C@H](Nc3ccc4[nH]ncc4c3)C2)c1 [Compound 1.187, (S)-tert-butyl 2-(3-((3-(1H-indazol-5-ylamino)piperidin-1-yl)methyl)phenoxy)acetate] | 0.296 | 0.0173 |  | 
NCc1ccc(CN2CCC[C@@H](Nc3ccc4[nH]ncc4c3)C2)cc1 [Compound 1.188, (R)-N-(1-(4-(aminomethyl)benzyl)piperidin-3-yl)-1H-indazol-5-amine] |  |  | 0.653 | 
CCSc1ccc(CN2CCC[C@@H](Nc3ccc4[nH]ncc4c3)C2)cc1 [Compound 1.189, (R)-N-(1-(4-(ethylthio)benzyl)piperidin-3-yl)-1H-indazol-5-amine] | 0.188 | 0.0343 |  | 
FC(F)(F)c1cccc(CN2CCC[C@@H](Nc3ccc4[nH]ncc4c3)C2)c1 [Compound 1.190, (R)-N-(1-(3-(trifluoromethyl)benzyl)piperidin-3-yl)-1H-indazol-5-amine] | 0.326 | 0.0718 |  | 
Clc1cccc(CN2CCC[C@@H](Nc3ccc4[nH]ncc4c3)C2)c1 [Compound 1.191, (R)-N-(1-(3-chlorobenzyl)piperidin-3-yl)-1H-indazol-5-amine] | 0.147 | 0.0334 |  | 
Cc1cccc(CN2CCC[C@@H](Nc3ccc4[nH]ncc4c3)C2)c1 [Compound 1.192, (R)-N-(1-(3-methylbenzyl)piperidin-3-yl)-1H-indazol-5-amine] | 0.158 | 0.0377 |  | 
CC(=O)NCc1cccc(CN2CCC[C@@H](Nc3ccc4[nH]ncc4c3)C2)c1 [Compound 1.194] | 0.176 | 0.0202 |  | 
O=C(O)COc1cccc(CN2CCC[C@H](Nc3ccc4[nH]ncc4c3)C2)c1 [Compound 1.196, (S)-2-(3-((3-(1H-indazol-5-ylamino)piperidin-1-yl)methyl)phenoxy)acetic acid] | 0.711 | 0.0398 |  | 
CN(c1cccc(CN2CCC[C@H](Nc3ccc4[nH]ncc4c3)C2)c1)S(C)(=O)=O [Compound 1.198, (S)-N-(3-((3-(1H-indazol-5-ylamino)piperidin-1-yl)methyl)phenyl)-N-methylmethanesulfonamide] | 0.585 | 0.0247 |  | 
CC(C)(C)OC(=O)NCc1ccc(CN2CCC[C@H](Nc3ccc4[nH]ncc4c3)C2)cc1 [Compound 1.199, (S)-tert-butyl 4-((3-(1H-indazol-5-ylamino)piperidin-1-yl)methyl)benzylcarbamate] | 1.86 | 0.213 |  | 
NCc1ccc(CN2CCC[C@H](Nc3ccc4[nH]ncc4c3)C2)cc1 [Compound 1.201, (S)-N-(1-(4-(aminomethyl)benzyl)piperidin-3-yl)-1H-indazol-5-amine] | 1.59 | 0.23 |  | 
Clc1ccc(CN2CC[C@@H](Nc3ccc4[nH]ncc4c3)C2)cc1 [Compound 1.241, (R)-N-(1-(4-chlorobenzyl)pyrrolidin-3-yl)-1H-indazol-5-amine] | 0.0651 |  |  | 
CN(C)S(=O)(=O)Nc1cccc(CN2CCC[C@H](Nc3ccc4[nH]ncc4c3)C2)c1 [Compound 1.261] | 0.307 |  |  | 0.307
Cc1c(CN2CCC[C@H](Nc3ccc4[nH]ncc4c3)C2)cccc1NS(=O)(=O)N(C)C [Compound 1.275] | 0.402 |  |  | 0.402
Cc1ccc(CN2CC[C@@H](Nc3cccc4cnccc34)C2)cc1NS(=O)(=O)N(C)C [Compound 2.077] | 0.0337 |  |  | 0.0337
COc1nccc2c(N[C@@H]3CCN(Cc4ccc(C)c(OCCO)c4)C3)cccc12 [Compound 2.094, (R)-2-(5-((3-(1-methoxyisoquinolin-5-ylamino)pyrrolidin-1-yl)methyl)-2-methylphenoxy)ethanol] | 16.6 |  |  | 
COc1c(CN2CC[C@@H](Nc3cccc4cnccc34)C2)cccc1NS(=O)(=O)N(C)C [Compound 2.097] | 0.0354 |  |  | 0.0354
CC1CNCCN1S(=O)(=O)c1cccc2cnccc12 (centres unmarked) [Compound H7, reference compound] |  | 0.125 |  | 
